ChEMBL document CHEMBL1121801, “Salicylamide derivatives related to medroxalol with alpha- and beta-adrenergic antagonist and antihypertension activity” (J Med Chem, 1981)

Key:
[1] = target: Beta-1 adrenergic receptor (Homo sapiens) (UniProt P08588); conditions: Canis lupus familiaris;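 note: anesthetized dogs dosed intravenously, sympatholytic action measured as inhibition of the chronotropic response to isoproterenol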
Description: In vivo sympatholytic activity (isoproterenol-induced chronotropy) at beta 1-adrenergic receptor in anesthetized dog, iv

[2] = target: T1, Adrenergic receptor alpha-1 (Homo sapiens, UniProt P35348+P25100+P35368); assay: In vitro blocking activity against alpha adrenergic receptor, isolated from rabbit aortic strip; format: protein assay, Oryctolagus cuniculus
T1 sequence (P35348 whole entry): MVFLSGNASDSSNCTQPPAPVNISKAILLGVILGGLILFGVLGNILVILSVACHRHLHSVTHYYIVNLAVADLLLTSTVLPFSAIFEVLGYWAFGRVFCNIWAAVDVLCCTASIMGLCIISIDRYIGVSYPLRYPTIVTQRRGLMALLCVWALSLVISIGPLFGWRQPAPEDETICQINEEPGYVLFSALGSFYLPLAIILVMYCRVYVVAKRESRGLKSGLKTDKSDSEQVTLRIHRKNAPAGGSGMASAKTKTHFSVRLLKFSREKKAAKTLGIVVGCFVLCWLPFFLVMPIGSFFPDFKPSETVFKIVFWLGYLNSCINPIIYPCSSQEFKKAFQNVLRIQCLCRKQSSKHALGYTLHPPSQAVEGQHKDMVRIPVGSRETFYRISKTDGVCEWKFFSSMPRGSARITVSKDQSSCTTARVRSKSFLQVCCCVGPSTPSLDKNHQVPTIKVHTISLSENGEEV
T1 sequence (P25100 whole entry): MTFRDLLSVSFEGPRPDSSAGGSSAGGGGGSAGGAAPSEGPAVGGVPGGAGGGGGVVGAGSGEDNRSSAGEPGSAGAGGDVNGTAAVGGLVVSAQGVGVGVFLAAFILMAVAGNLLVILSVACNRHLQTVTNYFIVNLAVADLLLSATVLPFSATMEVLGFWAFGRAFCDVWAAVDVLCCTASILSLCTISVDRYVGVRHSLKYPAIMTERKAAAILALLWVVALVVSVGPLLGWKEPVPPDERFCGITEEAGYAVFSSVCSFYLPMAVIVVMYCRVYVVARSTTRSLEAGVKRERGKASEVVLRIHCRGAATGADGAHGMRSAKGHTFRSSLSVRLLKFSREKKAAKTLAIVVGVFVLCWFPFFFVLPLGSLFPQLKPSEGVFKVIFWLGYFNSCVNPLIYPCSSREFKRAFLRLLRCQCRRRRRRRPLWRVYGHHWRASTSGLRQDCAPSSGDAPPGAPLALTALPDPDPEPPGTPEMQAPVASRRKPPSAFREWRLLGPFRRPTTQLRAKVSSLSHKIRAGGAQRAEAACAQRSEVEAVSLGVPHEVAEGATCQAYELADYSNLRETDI
T1 sequence (P35368 whole entry): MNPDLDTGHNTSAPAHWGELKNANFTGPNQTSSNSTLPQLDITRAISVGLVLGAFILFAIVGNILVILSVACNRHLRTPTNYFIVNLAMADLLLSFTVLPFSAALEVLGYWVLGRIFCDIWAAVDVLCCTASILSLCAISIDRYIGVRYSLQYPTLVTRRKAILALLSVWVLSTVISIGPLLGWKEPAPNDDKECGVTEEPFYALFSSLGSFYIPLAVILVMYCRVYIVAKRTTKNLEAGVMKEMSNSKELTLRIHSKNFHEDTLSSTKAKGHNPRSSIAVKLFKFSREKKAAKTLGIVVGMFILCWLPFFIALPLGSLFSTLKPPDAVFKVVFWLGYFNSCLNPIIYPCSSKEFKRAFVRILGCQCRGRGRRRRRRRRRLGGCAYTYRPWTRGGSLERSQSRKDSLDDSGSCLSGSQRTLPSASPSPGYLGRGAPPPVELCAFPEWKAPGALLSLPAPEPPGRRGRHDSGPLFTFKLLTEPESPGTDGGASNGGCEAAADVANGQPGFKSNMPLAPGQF

[3] = target: Adrenergic receptor alpha (Homo sapiens) (UniProt P35348+P08913+P18825+P25100+P35368+P18089); conditions: Canis lupus familiaris
Description: In vivo sympatholytic activity (phenylephrine-induced vasopressor response) at alpha-adrenergic receptor in anesthetized dog, iv

Rattus norvegicus [4] = assay: Antihypertensive activity in spontaneously hypertensive rats(SHR) at 50 mg/kg peroral dose after 4 h, expressed as decrease in systolic blood pressure; format: functional, Artery; conditions: route oral
Rattus norvegicus [5] = assay: Antihypertensive activity in spontaneously hypertensive rats(SHR) at 50 mg/kg peroral dose after 1 h, expressed as decrease in systolic blood pressure; format: functional, Artery; conditions: route oral
Adrenergic receptor beta [6] = target: T2, Adrenergic receptor beta (Homo sapiens, UniProt P08588+P07550+P13945); assay: In vitro blocking activity against beta adrenergic receptor, isolated from guinea pig atria; format: protein assay
Cavia porcellus = species: Cavia porcellus; assay: spasmolytic activity in isolated guinea pig ileum preparation;- log KB; (Bacl2); format: functional, organism-based; conditions: read-out: pA2 (converted)
[7] = target: Beta-2 adrenergic receptor (Canis lupus familiaris) (UniProt P54833);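 note: Beta-2 blockade of isoproterenol-induced vasodepression in anesthetized dogs, given intravenously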
Description: In vivo sympatholytic activity (isoproterenol-induced vasodepression) at beta 2-adrenergic receptor in anesthetized dog, iv

Oryctolagus cuniculus = species: Oryctolagus cuniculus; assay: (§1) Ratio of pA2 for beta-adrenergic receptor to that of alpha-adrenergic receptor
Rattus norvegicus [8] = assay: Compound was tested for antihypertensive activity in spontaneously hypertensive rats(SHR)at 50 mg/kg (po) dose after 1 h; format: functional
Rattus norvegicus [9] = assay: Compound was tested for antihypertensive activity n spontaneously hypertensive rats(SHR),at 50 mg/kg (po) dose after 4 h; format: functional
Adrenergic receptor beta [10] = target: T2, Adrenergic receptor beta; assay: as §1; format: protein assay; conditions: Cavia porcellus
[11] = target: T1, Adrenergic receptor alpha-1; assay: Compound was tested in vitro for Alpha adrenergic receptor blocking activity in the isolated rabbit aortic strip preparation; - log KB; set-up: species or system Oryctolagus cuniculus; conditions: target entry is the homologue from another species

Beta-1 adrenergic receptor (Homo sapiens), sequence (P08588 whole entry, looked up): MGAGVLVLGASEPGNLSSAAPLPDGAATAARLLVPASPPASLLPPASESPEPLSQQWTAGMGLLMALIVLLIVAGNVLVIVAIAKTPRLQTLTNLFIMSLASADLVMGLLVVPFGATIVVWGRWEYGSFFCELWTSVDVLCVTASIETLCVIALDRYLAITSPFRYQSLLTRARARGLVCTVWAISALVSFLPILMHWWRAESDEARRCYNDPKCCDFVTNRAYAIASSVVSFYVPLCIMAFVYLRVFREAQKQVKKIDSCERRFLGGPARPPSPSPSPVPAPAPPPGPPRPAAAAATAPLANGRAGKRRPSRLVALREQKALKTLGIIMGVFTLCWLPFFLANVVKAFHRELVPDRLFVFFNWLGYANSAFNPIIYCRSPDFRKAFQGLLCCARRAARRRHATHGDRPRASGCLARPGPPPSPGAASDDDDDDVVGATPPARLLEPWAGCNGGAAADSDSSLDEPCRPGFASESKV
Beta-2 adrenergic receptor (Canis lupus familiaris), sequence (P54833 whole entry, looked up): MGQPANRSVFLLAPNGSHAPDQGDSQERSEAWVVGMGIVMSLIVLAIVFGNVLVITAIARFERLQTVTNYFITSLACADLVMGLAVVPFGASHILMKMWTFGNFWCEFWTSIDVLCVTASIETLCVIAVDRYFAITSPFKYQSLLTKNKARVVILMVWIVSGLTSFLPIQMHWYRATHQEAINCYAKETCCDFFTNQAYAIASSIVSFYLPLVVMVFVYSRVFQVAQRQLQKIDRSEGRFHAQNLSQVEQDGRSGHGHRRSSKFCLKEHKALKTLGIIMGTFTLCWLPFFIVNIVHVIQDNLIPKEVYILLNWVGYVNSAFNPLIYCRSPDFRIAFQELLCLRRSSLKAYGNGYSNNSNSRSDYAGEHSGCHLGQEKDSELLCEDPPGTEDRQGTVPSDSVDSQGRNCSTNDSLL

SMILES	DR10 [1] [mg/kg]	pA2 [2]	DR10 [3] [mg/kg]	BP decrease (Rattus norvegicus [4]) [mmHg]	BP decrease (Rattus norvegicus [5]) [mmHg]	pA2 (Adrenergic receptor beta [6])	Kb (Cavia porcellus) [nM]	DR10 [7] [mg/kg]	Ratio (Oryctolagus cuniculus)	BP decrease (Rattus norvegicus [8]) [mmHg]	BP decrease (Rattus norvegicus [9]) [mmHg]	Ratio (Adrenergic receptor beta [10])	pA2 [11]
CNC(=O)c1cc(C(O)CNC(C)CCc2ccc3c(c2)OCO3)ccc1O.Cl (centres undefined)	8.63	5.9	5.44	91	84	6.69	380	3.61	6.2	–	–	–	–
CC(CCc1ccc2c(c1)OCO2)NCC(O)c1ccc(O)c(C(=O)NCC(C)(C)C)c1.Cl (centres undefined)	> 10	6.05	6.6	24	55	5.88	126	> 10	0.8	–	–	–	–
CCNC(=O)c1cc(C(O)CNC(C)CCc2ccc3c(c2)OCO3)ccc1O.Cl (centres undefined)	11.8	5.86	3.22	108	95	6.36	1740	16.8	3.2	–	–	–	–
CCCCCCCCCCCCNC(=O)c1cc(C(O)CNC(C)CCc2ccc3c(c2)OCO3)ccc1O.Cl (centres undefined)	–	< 5	–	–	–	4.53	< 63100	–	–	16	18	–	–
CC(C)NC(=O)c1cc(C(O)CNC(C)CCc2ccc3c(c2)OCO3)ccc1O.Cl (centres undefined)	22.5	5.85	4.84	10	48	5.88	417	14.8	–	–	–	1.1	–
Cc1ccc(N(CC2=NCCN2)c2cccc(O)c2)cc1.Cl [PHENTOLAMINE HYDROCHLORIDE]	–	–	–	–	–	–	–	–	–	62	60	–	–
Cc1ccccc1N1CCN(CC(O)c2ccc(O)c(C(N)=O)c2)CC1.Cl.Cl (centres undefined)	15.3	7.57	1.09	37	48	6.7	1860	> 10	0.1	–	–	–	–
COc1ccc(C(O)CNC(C)CCc2ccc3c(c2)OCO3)cc1C(N)=O.Cl (centres undefined)	0.23	< 5.14	9.68	78	76	8.46	43700	1.64	> 2090	–	–	–	–
CC(Cc1ccc2c(c1)OCO2)NCC(O)c1ccc(O)c(C(N)=O)c1 (centres undefined)	6.75	6.04	16	73	79	5.97	4570	7.13	0.9	–	–	–	–
CC(CCc1ccc2c(c1)OCO2)NCC(O)c1ccc(O)c(C(N)=O)c1.Cl (centres undefined) [MEDROXALOL HYDROCHLORIDE]	0.84	–	3.86	90	88	7.82	2340	1.17	55	–	–	–	6.08
